Source: article PMC9581852, “Organic Cation Transporter-Mediated Accumulation of Quinolinium Salts in the LV Myocardium of Rodents” (Molecular Imaging and Biology, 2022)
Values belong to the compound of their own block, whether it stands above or below them.

How the values were obtained:
Format in all cases: cell-based
[1] = target: T1, hOCT3 (organic cation transporter 3) (Homo sapiens, UniProt O75751); test: inhibition of […]FEtQ uptake in HEK293 cells stably expressing hOCT3
T1 construct: gene SLC22A3
T1 sequence (O75751 1-556): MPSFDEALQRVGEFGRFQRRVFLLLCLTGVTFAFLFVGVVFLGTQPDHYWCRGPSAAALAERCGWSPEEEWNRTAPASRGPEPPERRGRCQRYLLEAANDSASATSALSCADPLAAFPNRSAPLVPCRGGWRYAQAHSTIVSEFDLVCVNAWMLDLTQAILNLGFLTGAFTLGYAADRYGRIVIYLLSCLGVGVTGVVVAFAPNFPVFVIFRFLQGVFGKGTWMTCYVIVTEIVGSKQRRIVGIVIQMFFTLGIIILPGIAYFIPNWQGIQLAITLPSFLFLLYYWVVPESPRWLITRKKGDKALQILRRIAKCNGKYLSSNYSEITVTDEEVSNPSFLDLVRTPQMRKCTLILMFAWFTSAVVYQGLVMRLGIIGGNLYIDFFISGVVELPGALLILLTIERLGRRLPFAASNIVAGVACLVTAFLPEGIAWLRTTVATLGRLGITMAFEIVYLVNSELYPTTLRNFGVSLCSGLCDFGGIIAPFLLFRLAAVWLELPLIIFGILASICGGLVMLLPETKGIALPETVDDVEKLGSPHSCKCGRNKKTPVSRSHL

[2] = target: T1, hOCT3 (organic cation transporter 3); test: radioligand saturation binding/uptake in intact HEK293-hOCT3 cells, empty-vector cells as non-specific binding
[3] = target: T2, hOCT2 (organic cation transporter 2) (Homo sapiens, UniProt O15244); test: in vivo PET/CT blocking of […]FEtQ uptake in HEK-hOCT2 xenografts in mice
T2 construct: gene SLC22A2
T2 sequence (O15244 1-555): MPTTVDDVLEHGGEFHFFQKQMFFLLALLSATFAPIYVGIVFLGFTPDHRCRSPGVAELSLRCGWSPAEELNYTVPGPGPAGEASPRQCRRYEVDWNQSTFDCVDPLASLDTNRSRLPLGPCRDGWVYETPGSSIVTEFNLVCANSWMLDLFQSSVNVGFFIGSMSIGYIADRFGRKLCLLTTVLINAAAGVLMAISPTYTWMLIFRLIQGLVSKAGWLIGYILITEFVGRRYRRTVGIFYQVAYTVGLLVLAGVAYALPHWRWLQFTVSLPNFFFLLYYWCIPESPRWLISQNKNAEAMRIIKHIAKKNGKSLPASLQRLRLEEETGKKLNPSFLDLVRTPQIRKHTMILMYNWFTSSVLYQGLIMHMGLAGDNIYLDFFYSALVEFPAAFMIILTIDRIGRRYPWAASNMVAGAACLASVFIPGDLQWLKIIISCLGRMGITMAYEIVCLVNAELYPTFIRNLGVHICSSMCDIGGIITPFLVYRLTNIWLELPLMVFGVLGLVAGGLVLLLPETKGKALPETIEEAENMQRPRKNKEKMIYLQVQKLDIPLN

Compound: C[C@]12C[C@H](O)[C@H]3[C@@H](CCC4=CC(=O)CC[C@@]43C)[C@@H]1CC[C@@H]2C(=O)CO [corticosterone]
- IC50 [1]: 0.05 to 0.5 µM

- Kd [2]: 214 ± 114 µM
Compound: FCC[n+]1cccc2ccccc21 [[18F]FEtQ]

Compound: CCN1/C(=C/c2ccc3ccccc3[n+]2CC)C=Cc2ccccc21 [decynium 22]
- % lower peak tumor uptake at 0.075 mg/kg [3]: 40 % lower peak tumor uptake at 0.075 mg/kg
